In ChEMBL document CHEMBL1201862, “PubChem BioAssay data set” (2004):
Active and inactive are the calls of the source.

Columns and labels:
[1] = target: T1, Heat shock factor protein 1 (Mus musculus, UniProt P38532); experiment: decrease of HSF1-responsive luciferase luminescence – cell-based, NIH3T3, dose retest, confirmation (AID 2382); format: functional;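 also: NIH3T3 fibroblasts with HSF1-driven luciferase reporter stressed by proteasome inhibitor MG132; luminescence from HSF1-driven luciferase expression after 8 hours of MG132 stress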
T1 sequence (P38532 whole entry): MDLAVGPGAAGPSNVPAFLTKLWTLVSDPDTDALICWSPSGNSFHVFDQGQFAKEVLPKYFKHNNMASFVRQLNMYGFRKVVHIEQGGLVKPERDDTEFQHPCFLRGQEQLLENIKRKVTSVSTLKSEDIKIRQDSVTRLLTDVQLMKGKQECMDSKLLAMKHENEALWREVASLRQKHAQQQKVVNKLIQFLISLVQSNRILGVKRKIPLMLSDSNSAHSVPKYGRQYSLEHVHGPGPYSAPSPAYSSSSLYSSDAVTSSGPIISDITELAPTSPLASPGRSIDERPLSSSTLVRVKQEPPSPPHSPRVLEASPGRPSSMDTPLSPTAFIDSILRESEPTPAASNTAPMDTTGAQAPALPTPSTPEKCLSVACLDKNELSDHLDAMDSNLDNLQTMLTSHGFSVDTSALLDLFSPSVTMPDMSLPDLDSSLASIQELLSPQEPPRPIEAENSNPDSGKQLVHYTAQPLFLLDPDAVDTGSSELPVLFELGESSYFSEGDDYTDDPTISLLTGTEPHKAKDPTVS

[2] = system: Vero; experiment: mammalian cell viability reduction – secondary assay, cytotoxicity control for West Nile virus antiviral project, dose response (AID 1650); format: functional; conditions: Chlorocebus sabaeus
[3] = target: Prothrombin (Homo sapiens, UniProt P00734); experiment: Thrombin 1536 HTS Dose Response Confirmation. [Related pubchem assays: 1046 (Thrombin 1536 HTS; hits were confirmed in this assay)]; format: functional
[4] = target: T2, Neuropeptide Y receptor type 1 (Homo sapiens, UniProt P25929); format: functional;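 also: HEK293 cells with a CNG channel challenged with NPY then isoproterenol; potency as antagonist that reverses NPY suppression of cAMP signal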
T2 sequence (P25929 whole entry): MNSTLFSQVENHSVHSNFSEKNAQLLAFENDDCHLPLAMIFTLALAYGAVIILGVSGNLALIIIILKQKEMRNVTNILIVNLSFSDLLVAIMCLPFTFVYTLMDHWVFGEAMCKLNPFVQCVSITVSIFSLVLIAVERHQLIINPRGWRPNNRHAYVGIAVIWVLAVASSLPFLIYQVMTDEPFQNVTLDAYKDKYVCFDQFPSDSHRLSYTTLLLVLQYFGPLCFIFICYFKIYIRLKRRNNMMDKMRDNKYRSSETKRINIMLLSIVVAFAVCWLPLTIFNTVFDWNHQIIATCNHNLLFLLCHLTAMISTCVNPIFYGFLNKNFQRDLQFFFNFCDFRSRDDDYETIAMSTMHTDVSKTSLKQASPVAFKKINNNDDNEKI

[5] = target: T3, Neuropeptide Y receptor type 2 (Homo sapiens, UniProt P49146); format: functional, cell-based;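 also: HEK293 cells expressing the receptor and a CNG channel; stimulus was NPY near EC95 followed by isoproterenol to raise cAMP; antagonist potency measured as restoring cAMP signal that NPY suppresses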
T3 sequence (P49146 whole entry): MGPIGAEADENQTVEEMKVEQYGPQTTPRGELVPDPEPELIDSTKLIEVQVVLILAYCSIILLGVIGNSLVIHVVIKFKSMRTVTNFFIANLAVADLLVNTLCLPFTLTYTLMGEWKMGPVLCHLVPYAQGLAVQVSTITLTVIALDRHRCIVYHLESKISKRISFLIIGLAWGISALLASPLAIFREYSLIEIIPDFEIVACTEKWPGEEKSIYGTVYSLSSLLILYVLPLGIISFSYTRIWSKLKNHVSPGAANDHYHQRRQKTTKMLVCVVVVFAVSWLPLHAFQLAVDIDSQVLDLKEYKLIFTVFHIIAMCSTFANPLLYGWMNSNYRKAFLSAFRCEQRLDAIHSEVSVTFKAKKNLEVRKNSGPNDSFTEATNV

[6] = A cytotoxicity screen of small molecule inhibitors of the PhoP region in Salmonella typhi identified in the primary screen. [Related pubchem assays: 1850, 1864, 1985 ]; format: functional
[7] = target: Cytochrome P450 2C9 (Homo sapiens, UniProt P11712)
Sequence of Cytochrome P450 2C9 (P11712 whole entry): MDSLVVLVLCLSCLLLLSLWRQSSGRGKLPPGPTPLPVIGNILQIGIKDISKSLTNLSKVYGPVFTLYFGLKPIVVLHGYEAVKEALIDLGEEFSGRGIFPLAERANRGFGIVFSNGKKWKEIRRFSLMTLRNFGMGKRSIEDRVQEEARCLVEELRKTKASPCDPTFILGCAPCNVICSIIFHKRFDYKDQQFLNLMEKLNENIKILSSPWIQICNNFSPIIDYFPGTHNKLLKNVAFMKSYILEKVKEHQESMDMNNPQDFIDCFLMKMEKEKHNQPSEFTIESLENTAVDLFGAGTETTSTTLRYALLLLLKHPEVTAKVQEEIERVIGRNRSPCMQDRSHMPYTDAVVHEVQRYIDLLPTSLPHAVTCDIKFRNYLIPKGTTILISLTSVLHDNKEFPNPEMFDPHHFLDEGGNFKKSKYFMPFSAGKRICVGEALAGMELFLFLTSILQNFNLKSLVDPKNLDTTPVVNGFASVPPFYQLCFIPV

[8] = Dd2 parasite growth inhibition in erythrocytes – SYBR Green, dry powder samples, set 9, dose response (AID 1159568); format: functional, cell-based
[9] = target: T4, Estrogen receptor beta (Homo sapiens, UniProt Q92731);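 also: recombinant ER-beta bound to coactivator SRC1 peptide in presence of estradiol agonist; inhibitors block coactivator peptide binding and lower the FRET signal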
T4 sequence (Q92731 whole entry): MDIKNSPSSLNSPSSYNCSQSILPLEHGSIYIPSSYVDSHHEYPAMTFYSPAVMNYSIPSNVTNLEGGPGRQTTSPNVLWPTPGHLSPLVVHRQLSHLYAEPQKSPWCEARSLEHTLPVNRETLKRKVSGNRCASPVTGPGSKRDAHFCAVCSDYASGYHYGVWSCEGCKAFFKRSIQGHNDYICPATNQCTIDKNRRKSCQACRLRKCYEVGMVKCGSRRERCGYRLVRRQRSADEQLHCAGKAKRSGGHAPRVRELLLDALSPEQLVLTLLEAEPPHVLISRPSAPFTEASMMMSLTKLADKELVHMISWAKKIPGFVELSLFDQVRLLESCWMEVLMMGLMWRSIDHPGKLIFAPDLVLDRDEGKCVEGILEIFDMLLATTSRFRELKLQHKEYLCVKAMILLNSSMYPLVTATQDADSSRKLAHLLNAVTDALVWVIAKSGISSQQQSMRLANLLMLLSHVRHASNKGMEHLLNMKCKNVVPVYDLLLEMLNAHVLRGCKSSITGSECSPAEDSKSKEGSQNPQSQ

[10] = target: T4, Estrogen receptor beta; experiment: blockers of SRC-3 recruitment to ERβ – biochemical, ELISA, streptavidin-HRP readout, orthogonal assay, confirmation (AID 1060)
[11] = target: T5, Protein RecA (Mycobacterium tuberculosis, UniProt P9WHJ3); experiment: Fluorescence Cell-Free Homogeneous Dose Retest to Identify Inhibitors of RecA-Intein Splicing Activity. [Related pubchem assays (depositor defined):AID2097, AID2223, AID489010, AID492950]; format: functional
T5 sequence (P9WHJ3 whole entry): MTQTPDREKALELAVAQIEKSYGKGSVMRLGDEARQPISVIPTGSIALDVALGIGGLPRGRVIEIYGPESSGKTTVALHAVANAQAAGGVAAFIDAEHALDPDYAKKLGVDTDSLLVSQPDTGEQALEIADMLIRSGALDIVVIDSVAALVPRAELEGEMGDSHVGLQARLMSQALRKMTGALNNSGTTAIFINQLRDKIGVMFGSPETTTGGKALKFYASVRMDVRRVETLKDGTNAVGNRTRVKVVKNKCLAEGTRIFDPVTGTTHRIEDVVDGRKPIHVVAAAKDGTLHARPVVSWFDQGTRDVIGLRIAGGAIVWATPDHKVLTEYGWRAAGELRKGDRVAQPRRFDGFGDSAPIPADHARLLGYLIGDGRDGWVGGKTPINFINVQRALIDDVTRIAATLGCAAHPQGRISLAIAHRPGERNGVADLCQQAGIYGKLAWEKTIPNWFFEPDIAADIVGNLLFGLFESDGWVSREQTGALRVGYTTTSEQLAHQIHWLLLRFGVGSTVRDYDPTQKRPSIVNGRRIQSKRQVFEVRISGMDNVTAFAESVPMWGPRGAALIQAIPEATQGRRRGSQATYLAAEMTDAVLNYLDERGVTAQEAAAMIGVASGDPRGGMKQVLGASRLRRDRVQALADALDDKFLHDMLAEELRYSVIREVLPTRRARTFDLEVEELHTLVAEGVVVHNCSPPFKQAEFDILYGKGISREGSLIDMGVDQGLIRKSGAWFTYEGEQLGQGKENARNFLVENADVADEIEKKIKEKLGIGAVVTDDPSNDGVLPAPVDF

[12] = target: T6, Replicative DNA helicase DnaB (Mycobacterium tuberculosis, UniProt P9WMR3); experiment: DnaB intein splicing inhibitors, dose response, biochemical, cell-free fluorescence (AID 449749); format: functional
T6 sequence (P9WMR3 whole entry): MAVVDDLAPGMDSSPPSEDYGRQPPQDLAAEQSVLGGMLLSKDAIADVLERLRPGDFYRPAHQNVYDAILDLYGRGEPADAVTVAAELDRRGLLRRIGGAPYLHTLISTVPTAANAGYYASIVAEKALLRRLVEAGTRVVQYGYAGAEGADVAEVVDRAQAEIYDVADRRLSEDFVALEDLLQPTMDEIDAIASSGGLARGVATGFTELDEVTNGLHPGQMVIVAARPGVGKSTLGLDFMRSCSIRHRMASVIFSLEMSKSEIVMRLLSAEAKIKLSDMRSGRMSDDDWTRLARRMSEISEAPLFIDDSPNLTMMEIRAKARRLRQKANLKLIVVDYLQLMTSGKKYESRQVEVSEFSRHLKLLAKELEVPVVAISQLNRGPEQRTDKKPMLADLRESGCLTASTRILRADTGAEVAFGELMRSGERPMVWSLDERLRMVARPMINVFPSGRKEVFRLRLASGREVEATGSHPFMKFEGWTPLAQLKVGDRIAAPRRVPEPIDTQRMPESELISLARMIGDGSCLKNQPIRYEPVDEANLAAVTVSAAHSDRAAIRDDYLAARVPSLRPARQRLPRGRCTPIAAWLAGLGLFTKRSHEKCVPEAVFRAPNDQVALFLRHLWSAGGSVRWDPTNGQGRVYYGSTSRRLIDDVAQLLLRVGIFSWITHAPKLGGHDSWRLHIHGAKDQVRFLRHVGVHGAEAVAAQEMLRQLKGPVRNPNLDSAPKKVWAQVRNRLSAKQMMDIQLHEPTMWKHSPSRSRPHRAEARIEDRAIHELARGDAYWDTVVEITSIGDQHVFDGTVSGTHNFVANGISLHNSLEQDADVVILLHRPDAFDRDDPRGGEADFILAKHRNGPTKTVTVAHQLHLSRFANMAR

[13] = target: T7, Fatty acid synthase (Homo sapiens, UniProt P49327); experiment: inhibition of human FAS-TE enzyme activity – biochemical, endpoint fluorescence intensity, uHTS hits, dose response (AID 624327); format: functional;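 also: fluorescence from hydrolysis of an O-methyl fluorescein acyl ester substrate by the enzyme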
T7 sequence (P49327 whole entry): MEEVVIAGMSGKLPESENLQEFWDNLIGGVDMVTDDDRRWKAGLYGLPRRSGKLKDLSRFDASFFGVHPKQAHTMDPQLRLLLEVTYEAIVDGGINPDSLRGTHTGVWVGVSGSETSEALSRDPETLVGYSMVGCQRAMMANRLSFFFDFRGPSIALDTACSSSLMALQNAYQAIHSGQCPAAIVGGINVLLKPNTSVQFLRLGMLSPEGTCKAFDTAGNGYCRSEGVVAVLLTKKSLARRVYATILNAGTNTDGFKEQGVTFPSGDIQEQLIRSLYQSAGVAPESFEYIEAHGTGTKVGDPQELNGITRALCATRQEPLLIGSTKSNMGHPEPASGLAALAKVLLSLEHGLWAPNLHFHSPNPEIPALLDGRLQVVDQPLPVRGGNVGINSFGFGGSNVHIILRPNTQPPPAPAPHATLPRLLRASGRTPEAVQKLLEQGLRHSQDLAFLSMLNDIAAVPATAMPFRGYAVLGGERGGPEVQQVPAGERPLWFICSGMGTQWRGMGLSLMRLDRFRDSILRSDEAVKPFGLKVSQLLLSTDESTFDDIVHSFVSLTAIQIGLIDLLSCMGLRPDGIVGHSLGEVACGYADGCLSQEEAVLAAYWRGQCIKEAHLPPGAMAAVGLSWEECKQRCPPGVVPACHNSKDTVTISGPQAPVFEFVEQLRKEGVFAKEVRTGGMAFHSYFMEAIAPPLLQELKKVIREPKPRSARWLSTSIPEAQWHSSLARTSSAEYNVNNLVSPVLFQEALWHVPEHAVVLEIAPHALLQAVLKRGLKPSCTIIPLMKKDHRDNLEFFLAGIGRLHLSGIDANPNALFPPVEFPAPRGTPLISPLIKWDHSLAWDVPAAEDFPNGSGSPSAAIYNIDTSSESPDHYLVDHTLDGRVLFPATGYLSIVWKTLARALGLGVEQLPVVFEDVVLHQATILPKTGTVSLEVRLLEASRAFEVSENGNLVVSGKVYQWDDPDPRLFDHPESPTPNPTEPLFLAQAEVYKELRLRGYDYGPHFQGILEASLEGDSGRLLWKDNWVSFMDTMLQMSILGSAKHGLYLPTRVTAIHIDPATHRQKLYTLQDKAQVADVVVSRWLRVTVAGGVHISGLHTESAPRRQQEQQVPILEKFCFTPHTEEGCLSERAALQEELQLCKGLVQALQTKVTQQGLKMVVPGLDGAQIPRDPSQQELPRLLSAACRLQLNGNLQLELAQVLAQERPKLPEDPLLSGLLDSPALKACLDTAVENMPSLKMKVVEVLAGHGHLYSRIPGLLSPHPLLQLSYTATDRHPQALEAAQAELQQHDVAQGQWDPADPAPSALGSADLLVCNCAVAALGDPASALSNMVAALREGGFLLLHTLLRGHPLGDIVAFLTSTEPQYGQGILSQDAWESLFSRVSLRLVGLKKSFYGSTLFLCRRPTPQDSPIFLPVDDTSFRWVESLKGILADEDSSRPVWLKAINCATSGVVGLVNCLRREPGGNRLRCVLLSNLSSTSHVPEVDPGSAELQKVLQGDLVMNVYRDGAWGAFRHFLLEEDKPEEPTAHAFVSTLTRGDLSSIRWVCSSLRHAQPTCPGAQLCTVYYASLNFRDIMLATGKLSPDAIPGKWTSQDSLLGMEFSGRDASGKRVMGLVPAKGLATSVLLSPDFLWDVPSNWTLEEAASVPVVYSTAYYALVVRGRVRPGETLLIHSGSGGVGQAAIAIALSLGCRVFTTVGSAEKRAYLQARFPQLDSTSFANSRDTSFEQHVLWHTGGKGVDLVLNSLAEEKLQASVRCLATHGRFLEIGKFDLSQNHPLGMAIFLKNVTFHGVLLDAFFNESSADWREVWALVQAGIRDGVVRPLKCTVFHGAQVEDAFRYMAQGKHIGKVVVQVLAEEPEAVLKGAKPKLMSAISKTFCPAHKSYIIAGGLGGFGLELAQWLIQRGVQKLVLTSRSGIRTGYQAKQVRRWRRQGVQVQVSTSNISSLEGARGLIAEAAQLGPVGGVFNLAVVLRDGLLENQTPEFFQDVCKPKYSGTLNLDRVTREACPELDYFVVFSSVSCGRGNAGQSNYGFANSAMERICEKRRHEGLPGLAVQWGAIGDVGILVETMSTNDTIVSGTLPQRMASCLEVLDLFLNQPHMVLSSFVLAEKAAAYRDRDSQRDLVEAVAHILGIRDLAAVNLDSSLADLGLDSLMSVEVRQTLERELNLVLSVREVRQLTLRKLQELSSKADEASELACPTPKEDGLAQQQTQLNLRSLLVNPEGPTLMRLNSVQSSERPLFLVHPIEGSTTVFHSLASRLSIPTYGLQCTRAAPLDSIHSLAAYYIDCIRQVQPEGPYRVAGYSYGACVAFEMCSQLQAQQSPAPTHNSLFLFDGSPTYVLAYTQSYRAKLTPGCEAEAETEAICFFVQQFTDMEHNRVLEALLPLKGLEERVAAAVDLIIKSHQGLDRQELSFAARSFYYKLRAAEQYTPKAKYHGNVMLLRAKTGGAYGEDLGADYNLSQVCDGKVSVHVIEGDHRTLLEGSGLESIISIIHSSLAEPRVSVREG

[14] = target: Genome polyprotein (dengue virus type 2, UniProt P29990); experiment: flavivirus cap methylation enzyme inhibition – biochemical, confirmation dose response, primary screen (AID 588689); format: functional
Sequence of Genome polyprotein (P29990 2492-3391 limits assumed): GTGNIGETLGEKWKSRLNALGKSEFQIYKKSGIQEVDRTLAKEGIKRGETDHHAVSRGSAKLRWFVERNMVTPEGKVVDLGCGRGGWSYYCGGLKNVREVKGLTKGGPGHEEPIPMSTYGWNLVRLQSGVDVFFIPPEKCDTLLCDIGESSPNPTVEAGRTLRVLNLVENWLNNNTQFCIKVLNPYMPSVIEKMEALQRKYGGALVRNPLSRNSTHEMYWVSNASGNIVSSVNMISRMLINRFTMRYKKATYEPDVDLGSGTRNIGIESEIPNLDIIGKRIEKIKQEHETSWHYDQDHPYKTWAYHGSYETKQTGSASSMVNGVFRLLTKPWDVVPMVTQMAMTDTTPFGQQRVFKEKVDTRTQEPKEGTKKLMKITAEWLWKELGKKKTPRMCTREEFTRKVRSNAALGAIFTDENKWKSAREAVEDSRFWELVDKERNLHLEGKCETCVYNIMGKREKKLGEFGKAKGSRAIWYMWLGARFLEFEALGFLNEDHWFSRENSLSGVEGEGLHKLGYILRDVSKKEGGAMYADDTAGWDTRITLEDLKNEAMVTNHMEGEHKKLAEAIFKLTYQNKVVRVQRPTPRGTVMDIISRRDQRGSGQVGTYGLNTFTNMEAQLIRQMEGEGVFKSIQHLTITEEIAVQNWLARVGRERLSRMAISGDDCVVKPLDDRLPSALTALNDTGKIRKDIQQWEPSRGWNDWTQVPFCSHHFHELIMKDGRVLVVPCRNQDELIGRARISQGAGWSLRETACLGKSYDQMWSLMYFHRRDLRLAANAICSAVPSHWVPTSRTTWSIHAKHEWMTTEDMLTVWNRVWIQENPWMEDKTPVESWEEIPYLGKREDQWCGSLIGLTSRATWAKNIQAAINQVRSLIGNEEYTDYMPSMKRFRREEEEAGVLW

[15] = target: T7, Fatty acid synthase; experiment: inhibition of human FAS-TE enzyme activity – biochemical, kinetic fluorescence intensity, dose response (AID 624326); format: functional;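 also: rate of fluorescence rise from hydrolysis of a fluorogenic O-methyl fluorescein ester substrate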
[16] = Dd2 malaria parasite growth inhibition potency – SYBR Green, dry powder samples, dose response (AID 1159566); format: functional, cell-based;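 also: potency for growth inhibition with lower SYBR green DNA signal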
[17] = growth inhibition of PfATP4-mutant resistant parasites – NITD609-resistant line, SYBR Green, dry powder, dose response (AID 1159571); format: functional, cell-based;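 also: parasites synchronized at ring stage by sorbitol before testing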
[18] = P. falciparum Dd2 growth inhibitors, dose response, SYBR Green, cherry-picked samples (AID 1159567); format: functional, cell-based
[19] = growth inhibition of yeast DHODH-expressing 3D7 parasites – SYBR Green, dry powder samples, dose response (AID 1159570); format: functional, cell-based;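 also: parasite growth measured after 72 hours of compound exposure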
[20] = target: Paired box protein Pax-8 (Homo sapiens, UniProt Q06710); experiment: PAX8 transcriptional activity inhibition in RMG-I – RMG-I cells, luciferase, cherry-pick, dose response (AID 687027); format: functional, cell-based;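 also: luciferase reporter driven by Pax8 target thyroperoxidase promoter measured by SteadyGlo luminescence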
Sequence of Paired box protein Pax-8 (Q06710 whole entry): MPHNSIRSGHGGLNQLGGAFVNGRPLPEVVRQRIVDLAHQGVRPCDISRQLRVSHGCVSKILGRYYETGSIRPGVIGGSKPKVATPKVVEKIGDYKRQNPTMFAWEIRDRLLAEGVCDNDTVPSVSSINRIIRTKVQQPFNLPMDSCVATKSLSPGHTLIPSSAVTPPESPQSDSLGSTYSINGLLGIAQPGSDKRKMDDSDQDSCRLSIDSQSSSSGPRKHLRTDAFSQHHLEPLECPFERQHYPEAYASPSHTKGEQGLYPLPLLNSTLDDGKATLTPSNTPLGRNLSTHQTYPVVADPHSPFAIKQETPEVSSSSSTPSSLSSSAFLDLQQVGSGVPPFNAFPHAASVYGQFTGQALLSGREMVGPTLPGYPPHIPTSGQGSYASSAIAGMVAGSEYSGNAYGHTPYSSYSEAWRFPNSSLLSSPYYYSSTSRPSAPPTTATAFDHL

[21] = OVCAR-3 cell viability loss – plate reader, dry powder samples, PAX8 inhibitor project, dose response (AID 743044); format: functional, cell-based
[22] = target: Eukaryotic translation initiation factor 4E (Mus musculus, UniProt P63073); experiment: blockers of eIF4G binding by eIF4E – biochemical, TR-FRET, dose response (AID 855); format: functional;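 also: potency for disrupting eIF4E binding to eIF4GI seen as loss of FRET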
Sequence of Eukaryotic translation initiation factor 4E (P63073 whole entry): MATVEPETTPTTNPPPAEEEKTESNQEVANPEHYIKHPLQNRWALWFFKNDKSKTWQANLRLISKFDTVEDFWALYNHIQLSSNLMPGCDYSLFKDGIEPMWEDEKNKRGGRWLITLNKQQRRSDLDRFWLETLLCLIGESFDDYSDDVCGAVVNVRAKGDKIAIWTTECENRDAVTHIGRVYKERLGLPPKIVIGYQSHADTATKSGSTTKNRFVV

[23] = Luminescence Cell-Based Dose Retest to Confirm Inhibitors of Cancer Stem Cells. [Related pubchem assays (depositor defined):AID2717, AID2721]; format: functional; conditions: Homo sapiens

## CCCCCCc1cc2cc(S(=O)(=O)c3ccc(F)c(Cl)c3)c(=O)oc2cc1O
[1]
  EC50: 17.5 µM (active)
[2]
  CC50: 10.9 µM (active)

## C=CCOc1ccc(C(=O)C2=C(O)C(=O)N(CCCOC)C2c2ccncc2)cc1 (stereo not given)
[3]
  IC50: > 50 µM (inconclusive)

## O=C(O)c1ccccc1SCC(=O)N1CCOCC1
[3]
  IC50: > 50 µM (not active)

## O=C1NC(Nc2nc3ccccc3s2)(C(F)(F)F)C(=O)N1C1CCCCC1 (stereo not given)
[2]
  CC50: 3.44 µM (active)

## Clc1ccc(C2=Nn3c(nnc3-c3[nH]nc4c3CCC4)SC2)cc1Cl
[4]
  IC50: 9.8 µM (active)
[5]
  IC50: 8.69 µM (active)

## Cc1ccc(/C=N/NC(=O)CSc2nc3ccccc3n2C)s1
[6]
  EC50: > 50 µM (active)
[7]
  AC50: inconclusive

## CCCNC(=O)N1[C@H](C#N)[C@@H](c2ccccc2C2=CCCCC2)[C@@H]1CO
[8]
  AC50: 4.33 µM (active)

## C1=C(N2CCOCC2)/C(=C/c2nc3ccccc3[nH]2)CC1
[9]
  IC50: 23.8 µM (active)
[10]
  IC50: > 109 µM (not active)

## CC(=O)O[C@@H]1C[C@H]2C(C)(C)C(=O)C=C[C@]2(C)[C@H]2CC[C@@]3(C)[C@H](c4ccoc4)OC(=O)[C@H]4O[C@]43[C@@]21C [GEDUNIN]
[11]
  EC50: 16.1 µM (active)
[12]
  AC50: 4.57 µM (active)
[2]
  CC50: 22.2 µM (active)

## CCc1ccc(S(=O)(=O)ON2C(=O)c3ccccc3C2=O)cc1
[13]
  IC50: 2.41 µM (active)
[3]
  IC50: 1.55 µM (active)
[14]
  IC50: > 100 µM (active)
[15]
  IC50: 1.28 µM (active)

## O=C(CSCc1c(Cl)cccc1Cl)Nc1ccccc1-c1ccccc1
[4]
  IC50: 5.69 µM (active)
[5]
  IC50: 6.07 µM (active)

## COc1ccc2nc(NC(=O)Nc3ccccc3)sc2c1 [FRENTIZOLE]
[6]
  EC50: > 50 µM (active)

## CCOc1ccc2nc(NC(=O)CS(=O)(=O)c3ccc(C)cc3)sc2c1
[4]
  IC50: > 12 µM (not active)
[5]
  IC50: > 35 µM (not active)

## C/C=C/c1ccc([C@H]2[C@@H](CO)N(C(=O)Nc3ccccc3F)[C@H]2C#N)cc1
[8]
  AC50: 13.7 µM (active)

## COc1cccc(S(=O)(=O)N(C)C[C@@H]2Oc3ncc(C#Cc4ccc(OC)c(OC)c4)cc3C(=O)N([C@H](C)CO)C[C@@H]2C)c1
[16]
  AC50: 0.276 µM (active)
[17]
  AC50: 0.428 µM (active)
[18]
  AC50: 1.23 µM (active)
[19]
  AC50: 0.724 µM (active)

## O=C(C[C@@H]1CC[C@@H]2[C@H](COC[C@@H](O)CN2C(=O)c2ccncc2)O1)Nc1ccc(-c2ccccc2)cc1
[8]
  AC50: 15.3 µM (active)

## O=C(Nc1ccc(F)cc1)N[C@H]1CC[C@H](CCNC(=O)c2cc(Cl)cc(Cl)c2)O[C@H]1CO
[20]
  AC50: 8.97 µM (active)
[21]
  AC50: 33 µM (active)

## CCn1ncc(Br)c1C(=O)Nc1cc([N+](=O)[O-])ccc1C
[3]
  IC50: > 50 µM (not active)

## COc1c(Br)cc2c(C)c(C(=O)N3CCOCC3)oc2c1Br
[6]
  EC50: > 50 µM (active)

## Cc1ccc2c(Cl)cc(Cl)c(OCC(=O)NCc3ccco3)c2n1
[22]
  IC50: 12.5 µM (active)
[9]
  IC50: < 1.56 µM (active)
[10]
  IC50: > 50 µM (not active)

## Cc1ccc(OCCCCN(C)Cc2ccccc2)c(Br)c1
[4]
  IC50: 8.33 µM (active)
[23]
  AC50: 9.59 µM (active)
[5]
  IC50: 12 µM (not active)
